Experimental findings from patent US5665745A, “Heterocyclic compounds and their preparation and use” (Eli Lilly and Company, priority 1995, dated 1997) are described below.

Like-named read-outs stand apart in the source and are kept apart here.

For assay [1], the target named is muscarinic acetylcholine receptors. Nature of the assay: inhibition of specific binding of ^3 H-Oxotremorine-M (^3 H-Oxo). On the set-up: species or system rat (male Wistar. The settings on record: ^3 H-Oxotremorine 1.0 nM, rat cortex, 30 min. at 25° C. From the text:
The pharmacological properties of the compounds of the invention can be illustrated by determining their capability to inhibit the specific binding of ^3 H-Oxotremorine-M (^3 H-Oxo). Birdsdall N. J. M., Hulme E. C., and Burgen A. S. V. (1980). "The Character of Muscarinic Receptors in Different Regions of the Rat Brain" Proc. Roy. Soc. London (Series B) 207,1.
^3 H-Oxo labels muscarinic receptor in the CNS (with a preference for agonist domains of the receptors). Three different sites are labeled by ^3 H-Oxo. […] Using the present experimental conditions only the high and medium affinity sites are determined.
The inhibitory effects of compounds on ^3 H-oxo binding reflects the affinity for muscarinic acetylcholine receptors.
All preparations are performed at 0°-4° C. unless otherwise indicated. Fresh cortex (0.1-1 g) from male Wistar rats (150-250 g) is homogenized for 5-10 seconds in 10 mL […] Hepes pH: 7.4, with an Ultra-Turrax homogenizer. The homogenizer is rinsed with 10 mL of buffer and the combined suspension centrifuged for 15 min. at 40,000×g. The pellet is washed three times with buffer. In each step the pellet is homogenized as before in 2×10 mL of buffer and centrifuged for 10 min. at 40,000×g.
The final pellet is homogenized in 20 mM Hepes pH: 7.4 (100 mL per g of original tissue) and used for binding assay. Aliquots of 0.5 mL is added 25 μL of test solution and 25 μL of ^3 H-Oxotremorine (1.0 nM, final concentration) mixed and incubated for 30 min. at 25° C. Non-specific binding is determined in triplicate using arecoline ([…], final concentration) as the test substance. After incubation samples are added 5 mL of ice-cold buffer and poured directly onto Whatman GF/C glass fiber filters under suction and immediately washed 2 times with 5 mL of ice-cold buffer. The amount of radioactivity on the filters are determined by conventional liquid scintillation counting. Specific binding is total binding minus non specific binding.
Test substances are dissolved in 10 mL water (if necessary heated on a steam-bath for less than 5 min.) at a concentration of 2.2 mg/mL. […] The test value will be given as IC50 (the concentration (nM) of the test substance which inhibits the specific binding of ^3 H-oxo by 50%). IC50 =(applied test substance concentration) x(Cx /Co -Cx)nM where Co is specific binding in control assays and Cx is the specific binding in the test assay. (The calculations assume normal mass-action kinetics).

Assay [2] addresses T1, muscarinic receptors (M1 -site, pirenzepine sensitive site) (Rattus norvegicus, UniProt P08482).
T1 construct: from tissue; host or cells: cerebral cortex membranes of male Wistar rats
T1 sequence (P08482 1-460): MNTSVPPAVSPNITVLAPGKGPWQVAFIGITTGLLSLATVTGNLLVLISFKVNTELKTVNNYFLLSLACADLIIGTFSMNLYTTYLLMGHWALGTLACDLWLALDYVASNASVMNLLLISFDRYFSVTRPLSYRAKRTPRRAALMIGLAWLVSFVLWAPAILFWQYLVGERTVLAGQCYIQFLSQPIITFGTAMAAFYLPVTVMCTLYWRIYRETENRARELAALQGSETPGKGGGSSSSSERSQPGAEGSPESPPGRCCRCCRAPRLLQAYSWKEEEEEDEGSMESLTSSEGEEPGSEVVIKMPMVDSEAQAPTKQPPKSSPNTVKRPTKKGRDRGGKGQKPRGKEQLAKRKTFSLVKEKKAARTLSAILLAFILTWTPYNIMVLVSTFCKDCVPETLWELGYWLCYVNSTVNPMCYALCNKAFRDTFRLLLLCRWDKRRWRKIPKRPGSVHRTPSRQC
Briefly: inhibition of ^3 HPRZ (pirenzepine, [N-methyl-^3 H]) binding to rat cerebral cortex membranes. On the set-up: species or system rat (male Wistar. The method, then: Furthermore the pharmacological properties of the compounds of the invention can also be illustrated by determining their capability to inhibit ^3 HPRZ (pirenzepine, [N-methyl-^3 H]) binding to rat cerebral cortex membranes.
Pirenzepine binds selectively to subtype of muscarinic receptors. Historically the type is named the M1 -site, whereas pirenzepine sensitive site would be more appropriate.
All preparations are performed at 0°-4° C. unless otherwise indicated. Fresh cortex ([…]) from male Wistar rats (150-200 g) is homogenized for 5-10 s in 10 mL 20 mM Hepes pH: 7.4, with an Ultra-Turrax homogenizer. The homogenizer is rinsed with 2×10 mL of buffer and the combined suspension centrifuged for 15 min. at 40,000×g. The pellet is washed three times with buffer. In each step the pellet is homogenized as before in 3×10 mL of buffer and centrifuged for 10 min. at 40,000×g.
The final pellet is homogenized in 20 mM Hepes pH: 7.4 (100 mL per g of original tissue) and used for binding assay. Aliquots of 0.5 mL is added 20 μl of test solution and 25 μL of ^3 HPRZ (1.0 nM, final conc.), mixed and incubated for 60 min. at 20° C. Non-specific binding is determined in triplicate using atropine (1 ,μg/mL, final conc.) as the test substance. After incubation samples are added 5 mL of ice-cold buffer and poured directly onto Whatman GF/C glass fiber filters under suction and immediately washed 2 times with 5 mL of ice-cold buffer. The amount of radioactivity on the filters are determined by conventional liquid scintillation counting. Specific binding is total binding minus non-specific binding.
Test substances are dissolved in 10 mL water, at a concentration of 0.22 mg/mL.
The test value will be given as IC50 (the concentration (nM) of the test substance which inhibits the specific binding of ^3 HPRZ by 50%). IC50 =(applied test substance concentration) x(Cx /Co -Cx)nM where Co is specific binding in control assays and Cx is the specific binding in the test assay. (The calculations assume normal mass-action kinetics).

Where [3] appears, read: ^3 HPRZ 1.0 nM, rat cortex, 60 min. at 20° C., read-out: ^3 HPRZ IC50 (head from b208 on: Pir IC-50).

Take `C/C=C/COc1nsnc1OC1CN2CCC1CC2` (mixture of isomers) [Compound 109, (±)-3-(trans-2-butenyloxy)-4-(1-azabicyclo[2.2.2]octyl-3-oxy)-1,2,5-thiadiazole]: the IC50 is 0.0123 µM in assay [1] and 0.0583 µM in assay [2].
`C/C=C\COc1nsnc1OC1CN2CCC1CC2` (mixture of isomers) [Compound 110, (±)-3-(cis-2-butenyloxy)-4-(1-azabicyclo[2.2.2]octyl-3-oxy)-1,2,5-thiadiazole]: the results for the IC50 in assay [1] and in assay [2] were 0.0132 µM and 0.0504 µM, respectively.
Taken in the same sequence, the figures for `Cl/C=C/COc1nsnc1OC1CN2CCC1CC2` (mixture of isomers) [Compound 120, (±)-3-(trans-3-chloro-2-propenyloxy)-4-(1-azabicyclo[2.2.2]octyl-3-oxy)-1,2,5-thiadiazole] were 0.011 µM and 0.071 µM.
Take `CCCCSc1nsnc1OC1CCCN2CCCC12` (mixture of isomers) [Compound 142, (±)-cis-3-Butylthio-4-(1-azabicyclo[4.3.0]nonyl-5-oxy)-1,2,5-thiadiazole]: the figures for the IC50 in assay [1] and in assay [2] (setting [3]) were 0.038 µM and 0.074 µM, respectively.
The corresponding values for `FC(F)(F)CCCOc1nsnc1OC1CC2CCC1NC2` (mixture of isomers) [Compound 160, (±)-exo-3-(4,4,4-Trifluorobutyloxy)-4-(2-azabicyclo[2.2.2]octyl-6-oxy)-1,2,5-thiadiazole] are 0.014 µM and 0.0063 µM.
Taken in the same sequence, the figures for `CCCCCCOc1nsnc1OC1CC2CCC1NC2` (mixture of isomers) [Compound 161, (±)-exo-3-(Hexyloxy)-4-(2-azabicyclo[2.2.2]octyl-6-oxy)-1,2,5-thiadiazole] were 0.0068 µM and 0.0053 µM.
The corresponding values for `FC(F)(F)CCCOc1nsnc1OC1CC2CCC1NC2` (mixture of isomers) [Compound 162, (±)-endo-3-(4,4,4-Trifluorobutyloxy)-4-(2-azabicyclo[2.2.2]octyl-6-oxy)-1,2,5-thiadiazole] are 0.179 µM and 0.128 µM.
Regarding `Fc1ccc(OCCSc2nsnc2OC2CC3CCC2NC3)cc1` (mixture of isomers) [Compound 164, (±)-exo-3-(2-[Fluorophenoxy]ethylthio)-4-(2-azabicyclo[2.2.2]octyl-6-oxy)-1,2,5-thiadiazole], the IC50 in assay [1] was found to be 0.00528 µM; in assay [2] (setting [3]), 0.0166 µM.
Consider `C1=CC(Oc2nsnc2OC2CN3CCCC2C3)CCC1` (mixture of isomers) [Compound 174, (±)-endo-3-(2-Cyclohexenyloxy)-4-(1-azabicyclo[3.2.1]octyl-6-oxy)-1,2,5-thiadiazole], for which the IC50 in assay [1] came out at 0.0021 µM; in assay [2] (setting [3]), 0.012 µM.
Take `CC(Oc1nsnc1OC1CN2CCCC1C2)C1CC1` (mixture of isomers) [Compound 199, (±)-endo-3-(1-cyclopropylethoxy)-4-(1-azabicyclo[3.2.1]octyl-6-oxy)-1,2,5-thiadiazole]: the half-inhibitory concentration (IC50) is 0.0033 µM in assay [1] and 0.0054 µM in assay [2] (setting [3]).
The corresponding values for `C#CC(C)Oc1nsnc1OC1CN2CCCC1C2` (mixture of isomers) [Compound 203, (±)-endo-3-(3-Butyn-2-oxy)-4-(1-azabicyclo[3.2.1]octyl-6-oxy)-1,2,5-thiadiazole] are 0.0031 µM and 0.0043 µM.
For the molecule `COc1nsnc1OC1CN2CCC1CC2` (racemic) [Compound 5, (±)-3-Methoxy-4-(1-azabicyclo[2.2.2]octyl-3-oxy)-1,2,5-thiadiazole], the IC50 in assay [1] is 0.162 µM; in assay [2] (setting [3]) it was 0.183 µM.
With `CCOc1nsnc1OC1CN2CCC1CC2` (racemic) [Compound 6, (±)-3-Ethoxy-4-(1-azabicyclo[2.2.2]octyl-3-oxy)-1,2,5-thiadiazole], the IC50 came out at 0.017 µM in assay [1] and 0.032 µM in assay [2].
Taken in the same sequence, the figures for `CCCOc1nsnc1OC1CN2CCC1CC2` (racemic) [Compound 7, (±)-3-propyloxy-4-(1-azabicyclo[2.2.2]octyl-3-oxy)-1,2,5-thiadiazole] were 0.0107 µM and 0.026 µM.
Consider `CCCCOc1nsnc1OC1CN2CCC1CC2` (racemic) [Compound 8, (±)-3-Butyloxy-4-(1-azabicyclo[2.2.2]octyl-3-oxy)-1,2,5-thiadiazole], for which the IC50 came to 0.0031 µM in assay [1] and 0.0074 µM in assay [2].
For `CCCCCOc1nsnc1OC1CN2CCC1CC2` (racemic) [Compound 9, (±)-3-Pentyloxy-4-(1-azabicyclo[2.2.2]octyl-3-oxy)-1,2,5-thiadiazole], the IC50 in assay [1] amounted to 0.011 µM; in assay [2], 0.025 µM.
The corresponding values for `CCCCCCOc1nsnc1OC1CN2CCC1CC2` (racemic) [Compound 10, (±)-3-Hexyloxy-4-(1-azabicyclo[2.2,2]octyl-3-oxy)-1,2,5-thiadiazole] are 0.0061 µM and 0.022 µM.
Taken in the same sequence, the figures for `CC(C)CCCOc1nsnc1OC1CN2CCC1CC2` (racemic) [Compound 11, (±)-3-(4-Methylpentyloxy)-4-(1-azabicyclo[2.2.2]octyl-3-oxy)-1,2,5-thiadiazole] were 0.029 µM and 0.033 µM.
Taken in the same sequence, the figures for `Clc1nsnc1OC1CN2CCC1CC2` (racemic) [Compound 12, (±)-3-Chloro-4-(1-azabicyclo[2.2.2]octyl-3-oxy)-1,2,5-thiadiazole] were 0.073 µM and 0.086 µM.
On to `CCCSc1nsnc1OC1CN2CCC1CC2` (racemic) [Compound 13, (±)-3-Propylthio-4-(1-azabicyclo[2.2.2]octyl-3-oxy)-1,2,5-thiadiazole], for which the IC50 in assay [1] turned out to be 0.0014 µM; in assay [2], 0.0037 µM.
Take `CCCCSc1nsnc1OC1CN2CCC1CC2` (racemic) [Compound 14, (±)-3-Butylthio-4-(1-azabicyclo[2.2.2]octyl-3-oxy)-1,2,5-thiadiazole]: the IC50 turned out to be 0.0013 µM in assay [1] and 0.0019 µM in assay [2].
The corresponding values for `CCCCCSc1nsnc1OC1CN2CCC1CC2` (racemic) [Compound 15, (±)-3-Pentylthio-4-(1-azabicyclo[2.2.2]octyl-3-oxy)-1,2,5-thiadiazole] are 0.0016 µM and 0.0023 µM.

A word on the IC50: it is the midpoint of a concentration-inhibition curve.
